From PubChem BioAssay (NCI)
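Method: 48-hour compound exposure of cells in 96-well plates, five concentrations, linear interpolation of endpoints. GI50 marks 50% less growth. The concentration for full growth arrest is given as TGI.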

Legend:
Experiment in all cases: NCI anticancer screen, dose series, 48 h
[1] = system: UO-31 renal
[2] = system: KM12 colon
[3] = system: IGROV1 ovarian
[4] = system: HCT-15 colon
[5] = system: T-47D breast
[6] = system: PC-3 prostate
[7] = system: LOX IMVI melanoma
[8] = system: OVCAR-8 ovarian
[9] = system: RXF-631 renal
[10] = system: HOP-18 NSCLC

SMILES	GI50 [1]	TGI [1]	GI50 [2]	TGI [2]	GI50 [3]	TGI [3]	GI50 [4]	TGI [4]	GI50 [5]	TGI [5]	GI50 [6]	TGI [6]	GI50 [7]	TGI [7]	GI50 [8]	TGI [8]	TGI [9]	TGI [10]
O=C(CCCCCNC1=CC(=O)c2ccccc2C1=O)NCCC[Te]c1ccccc1	0.311 µM	1.3 µM	0.351 µM	1.3 µM	0.518 µM	1.89 µM	0.293 µM	1.4 µM	0.676 µM	2.59 µM	0.25 µM	2.58 µM	0.3 µM	1.4 µM	0.446 µM			
Cc1ccc(NC(C(=O)c2ccccc2)c2ccccc2)cc1 (stereo unspecified)	13.8 µM	35.8 µM	2.59 µM	13.4 µM	2.11 µM	22.6 µM	27.7 µM	> 100 µM	2.02 µM	11.5 µM	2.78 µM	52.4 µM	3.22 µM	39.4 µM	3.52 µM	> 100 µM		
S=C(Nc1ccc(Cl)cc1)SC1CCCCC1		> 100 µM		95.7 µM		54.2 µM		69.4 µM		> 100 µM		> 100 µM		42.8 µM		> 100 µM		
Cc1ccc(-n2nnc3c(sc4ccccc43)c2=O)cc1	2.24 µM	7.75 µM	3.81 µM	> 100 µM	4.16 µM	> 100 µM	> 100 µM	> 100 µM	30.4 µM	> 100 µM	7.73 µM	> 100 µM	4.09 µM	> 100 µM	6.1 µM	> 100 µM		
C=C(CS(=O)(=O)c1ccccc1)C(=O)OCC		35.4 µM		32.6 µM		38.8 µM		35 µM						24.2 µM		22.4 µM	16.8 µM	
COc1ccc(C2=NNC(c3cc(Cc4ccc(O)c(C5CC(c6ccc(OC)cc6)=NN5)c4)ccc3O)C2)cc1 (stereo unspecified)	4.29 µM	> 100 µM	22.6 µM	> 100 µM	13.7 µM	> 100 µM	3.64 µM	> 100 µM	4.61 µM	> 100 µM	61.4 µM	> 100 µM	7.38 µM	32.3 µM	6.36 µM	> 100 µM		
NC(Cn1ccc(=O)c(O)c1)C(=O)O (stereo unspecified)		> 100 µM		> 100 µM		> 100 µM		> 100 µM		> 100 µM		> 100 µM		> 100 µM		> 100 µM		
COc1ccc2oc(-c3cc4cc(OC)ccc4o3)cc2c1		> 100 µM		> 100 µM		> 100 µM		> 100 µM						> 100 µM		> 100 µM	> 100 µM	
CCc1ccc(Oc2nccc(-c3c(-c4ccc(F)cc4)ncn3C3CCNCC3)n2)cc1	3.63 µM	9.5 µM	6.01 µM	14.3 µM	4.71 µM	12.1 µM	6.35 µM	15.8 µM	4.3 µM	11.6 µM	5.33 µM	14.1 µM	4.78 µM	10.2 µM	4.7 µM	10.6 µM		
NC(=O)c1ccccc1NC(=O)C(=O)Nc1n[nH]c(N)n1		> 100 µM		> 100 µM		> 100 µM		> 100 µM						> 100 µM		> 100 µM		> 100 µM
